Laboratory results: patent publication US5708033A, “Amide derivatives and their therapeutic use” (Glaxo Wellcome Inc., priority 1994, dated 1998)
Where two headings read alike, the source gives them in different places.

Experiments:
Format in all cases: in vivo, rat (Lewis male)
[1] = system: rat pleura (carrageenan-induced cell accumulation and edema formation); test: modification of the standard carrageenan pleurisy assay (anti-inflammatory activity); conditions: po, p.o. gavage to fasted rats 0.5 hr prior to intrapleural 50 μg carrageenan, exudate after 4 hr
Protocol: The rats used in these experiments were Lewis males, weighing 160-180 g, assigned to groups consisting of 5 animals. Test compounds were given to fasted rats by oral gavage 0.5 hr prior to intrapleural injection of 50 μg carrageenan. After 4 hr, the pleural exudate was collected and the edema volume and cell number were determined. ED50 values were estimated by linear regression analysis, and represent the doses at which a given drug produced 50% inhibition of carrageenan-induced cell accumulation and edema formation within the rat pleura.

[2] = system: phalanges of one hind limb (algesic response); test: phalanges algesic assay (strong analgesia); conditions: p.o. gavage to fasted rats, mechanical force clamp one hour later, 3 seconds maximum; for ED50: Rattus norvegicus, po, 1 h, read-out: p.o. ED50 (strong analgesia, 50% inhibition of latency response)
Protocol: The rats used in these studies were Lewis male weighing 160-180 g and assigned to groups of 5-6 animals. The phalanges algesic assay is an algesic test (no hyperalgesia). Test compounds were given to fasted rats by oral gavage. One hour later an F-shaped mechanical force clamp was applied to the phalanges of one hind limb which initiated an algesic response (vocalisation or flight). Latency (seconds) to the algesic response was determined with 3 seconds maximum allowed time. ED50 values were estimated by linear regression analysis and represent the dose at which a given compound extended the latency response to produce 50% inhibition using the formula:
(3 sec.-Control Latency)-(3 sec.-Test Latency)/3 sec.-Control

[3] = system: rat hind limb (trypsin-induced hyperalgesia); test: modification of the trypsin-induced rat hind limb hyperalgesic assay (mild analgesia); conditions: po, 1 h, p.o. gavage to fasted rats 0.5 hours prior to subplantar 250 μg trypsin, evaluated one hour later, 4 seconds maximum latency, read-out: p.o. ED50 (mild analgesia, 50% inhibition of latency response)
Protocol: The rats used in these studies were Lewis male, weighing 160-180 g. and assigned to groups consisting of 5-6 animals. Test compounds were given to fasted rats by oral gavage 0.5 hours prior to the subplantar injection of 250 μg trypsin in one hind limb. One hour later the rats were evaluated for hyperalgesia using a F-shaped mechanical force clamp on the injected hind limb metatarsal area. Latency (seconds) to the algesic response (vocalisation or flight) was determined, with 4 seconds being the maximum latency allowed. ED50 values were estimated by linear regression analysis and represent the dose at which a given drug extended the latency response to produce 50% inhibition using the formula:
(4 sec.-Control Latency)-(4 sec.-Test Latency)/4 sec.--Control

[4] = read-out: p.o. ED50, Cells (50% inhibition of carrageenan-induced cell accumulation)
[5] = read-out: p.o. ED50, Edema (50% inhibition of edema formation)

SMILES | ED50 [1, 4] | ED50 [1, 5] | ED50 [2] | ED50 [3] | p.o. ED50 (strong analgesia, 50% inhibition of latency response) [2]
NC(=O)/C=C1\CCc2c(Br)cc(F)cc21 [Example 7, (E)-2-(4-Bromo-6-Fluoro-1-indanylidene)acetamide] | > 20 mg/kg | > 20 mg/kg | > 45 mg/kg | – | –
NC(=O)/C=C1\CCc2c(Cl)cc(Cl)cc21 [Example 3, (E)-2-(4,6-Dichloro-1-indanylidene)acetamide] | 25 mg/kg | 20 mg/kg | > 45 mg/kg | 4 mg/kg | –
NC(=O)/C=C1\CCc2c(F)cc(Cl)cc21 [Example 6, (E)-2-(6-Chloro-4-Fluoro-1-indanylidene)acetamide] | > 25 mg/kg | > 25 mg/kg | > 45 mg/kg | > 10 mg/kg | –
Cc1cc(Cl)c2c(c1)/C(=C/C(N)=O)CC2 [Example 8, (E)-2-(4-Chloro-6-methyl-1-indanylidene)acetamide] | > 25 mg/kg | > 25 mg/kg | – | – | Inactive at 45
CNC(=O)/C=C1\CCc2c(Cl)cc(F)cc21 [Example 1, (E)-2-(4-Chloro-6-fluoro-1-indanylidene)-N-Methylacetamide] | 8 mg/kg | 5 mg/kg | 60 mg/kg | 2 mg/kg | –
NC(=O)/C=C1\CCc2c(Cl)cc(F)cc21 [Example 2, (E)-2-(4-Chloro-6-fluoro-1-indanylidene)acetamide] | 11 mg/kg | 11 mg/kg | 30 mg/kg | 4 mg/kg | –
